The record followed here is paper PMC9098178, “SAR of Novel 3-Arylisoquinolinones: meta-Substitution on the Aryl Ring Dramatically Enhances Antiproliferative Activity through Binding to Microtubules” (Journal of Medicinal Chemistry, 2022).

Series [1] relates to MCF-7. In words: SRB antiproliferative assay, MCF-7. Type of series: cell-based, human. As to the method: Initially, the human breast cancer cell line MCF-7 was used in a prescreen analysis of the anticancer activity of 3-arylisoquinolinones. The cells were treated with serial concentrations of compounds 2–8 for 96 h prior to the assessment of proliferation using the sulforhodamine B (SRB) assay. For each compound, the concentration required to inhibit cell growth by 50% compared to that of the untreated control cells (IC50) was determined (Table 1).
(§1) All cell lines used in the study were human-derived and purchased from ATCC (Manassas, USA). Breast adenocarcinoma MCF-7 and MDA-MB-231 cell lines were cultured in DMEM. Hepatocellular carcinoma HepG2 and SNU423 cell lines were grown in MEME combined with 1% (v/v) nonessential amino acids and RPMI supplemented with 2 mM glutamine, respectively. Lung adenocarcinoma A549 and colorectal carcinoma HCT116 cells were grown in RPMI (+2 mM glutamine). All previous media were further supplemented with 10% heat-inactivated fetal bovine serum. The immortalized, normal liver THLE-3 cells were grown in BEGM (Lonza, Cat# CC-3170) onto precoated vessels according to ATCC’s instructions. Human umbilical vein endothelial cells (HUVECs) were cultured in EGM-2 (Lonza, Cat# CC-3162). All of the cells were maintained at 37 °C and 5% CO2 in a humidified incubator.
(§2) Screening of the antiproliferative activity of 3-arylisoquinolinones was performed using the SRB assay as previously described.[56] Exponentially growing HepG2, SNU423, MDA-MB-231, MCF-7, A549, HCT116, THLE-3, and HUVECs were seeded in 96-well plates at densities of 3000, 2000, 1500, 2500, 1000, 1000, 4000, and 4000 cells/well, respectively. These densities were experimentally selected so that the DMSO-treated cells (control) were approximately 80–90% confluent at the assay’s endpoint, and their optical density (OD) values fell within the assay’s linear range. After overnight incubation, the cells were treated with a range of concentrations of the respective compounds for 96 h, 24 h followed by 72 h compound-free incubation or 24 h (for HUVECs only). After treatment, cell monolayers were fixed with 10% (w/v) trichloroacetic acid for 1 h at 4 °C, washed, and dried. Then, the cells were exposed to 0.4% (w/v) SRB dye (prepared in 1% (v/v) acetic acid; Botium, Cat# 80100) for 15 min followed by several 1% acetic acid washing and then drying. Finally, the cellular protein-bound SRB was thoroughly dissolved in 10 mM Tris base, and the OD values were read at 510 nm using a plate reader (μQuant Microplate Spectrophotometer, Biotek, U.K.) coupled with Gen5 software (BioTek, U.K.). Compound-induced changes in cell growth were inferred from changes in OD values. Cell growth was calculated using the following formula: cell growth (%) = (ODtest/ODcontrol) × 100.
For orientation: The SRB assay estimates cell density from bound dye.

The test system of series [2] is MDA-MB-231. In words: SRB antiproliferative assay, MDA-MB-231. It counts as cell-based, human. On the procedure:
(§3) In light of this substantial change in activity between the meta and para compounds, a more comprehensive analysis of the antiproliferative activity was performed for the meta-/para-3-arylisoquinolinone pairs 2 and 3, 4, and 5, as well as 6. A panel of breast (MDA-MB-231), liver (HepG2, SNU423), lung (A549), and colon (HCT116) cancer cell lines were treated with the five 3-arylisoquinolinone analogs for 96 h followed by the SRB assay. The dose–response curves (including those for MCF-7) are presented in Figure S22, and their relevant IC50 values are listed in Table 1. […] The differential activity between meta- and para-3-arylisoquinolinones was reproduced in the National Cancer Institute (NCI) one-dose screen using a panel of 59 cancer cell lines (Figure S23).
as §1, §2

Series [3] has as its system HepG2. The series is described as follows: SRB antiproliferative assay, HepG2. Type of series: cell-based, human. On the procedure:
as §3, §1, §2

Series [4] relates to SNU423. The series is described as follows: SRB antiproliferative assay, SNU423. It counts as cell-based, human. On the procedure: as §3, §1
as §2, with “After overnight incubation, the cells were treated with a range of concentrations of the respective compounds for 96 h, 24 h followed by 72 h compound-free incubation or 24 h (for HUVECs only).” left out

Series [5] relates to A549. The series is described as follows: SRB antiproliferative assay, A549. It counts as cell-based, human. On the procedure:
as §3, §1, §2

Series [6] relates to HCT116. The series is described as follows: SRB antiproliferative assay, HCT116. It counts as cell-based, human. As to the method: as §3, §1, §2
In series [7] the test system is THLE-3. The series is described as follows: SRB antiproliferative assay, normal liver cell line THLE-3. It counts as cell-based, human. The note with it: 24 h +drug/72 h –drug treatment, read-out: mean IC50 ± SEM, THLE-3. An excerpt: In the preceding experiments, the cells were continuously exposed to the compounds prior to scoring for the antiproliferative/cytotoxic effects. […] The meta compounds were also examined for the presence of differential antiproliferative activity against cancer cells over the normal liver cell line THLE-3. […] Moreover, the sensitivity of the six cancer cell lines toward compounds 2, 4, and 6 was markedly greater than that of THLE-3 cells.
All cell lines used in the study were human-derived and purchased from ATCC (Manassas, USA). Breast adenocarcinoma MCF-7 and MDA-MB-231 cell lines were cultured in DMEM. Hepatocellular carcinoma HepG2 and SNU423 cell lines were grown in MEME combined with 1% (v/v) nonessential amino acids and RPMI supplemented with 2 mM glutamine, respectively. Lung adenocarcinoma A549 and colorectal carcinoma HCT116 cells were grown in RPMI (+2 mM glutamine). […]
Screening of the antiproliferative activity of 3-arylisoquinolinones was performed using the SRB assay as previously described.[56] […] Finally, the cellular protein-bound SRB was thoroughly dissolved in 10 mM Tris base, and the OD values were read at 510 nm using a plate reader (μQuant Microplate Spectrophotometer, Biotek, U.K.) coupled with Gen5 software (BioTek, U.K.). […] Cell growth was calculated using the following formula: cell growth (%) = (ODtest/ODcontrol) × 100.

The subject of series [8] is HepG2 cells. The series is described as follows: Clonogenic assay. It counts as cell-based, human. The note with it: 0.5 or 1 μM, 14 days. On the procedure:
HepG2 cells were treated with varying concentrations of 2–6 added once and kept for 14 days before counting colonies and calculating surviving fraction (Figure 2).
The ability of potential anticancer agents to prevent unlimited cell division and induce reproductive cell death was assessed using clonogenic assay as previously described.[57] In brief, HepG2 cells were seeded into six-well plates at a density of 1000 single cells/well and incubated for 10–12 h to adhere. The cells were then treated with DMSO (control) or a range of concentrations of 2–6 for 14 days. Afterward, the produced colonies were washed with phosphate-buffered saline (PBS), fixed with 70% ethanol for 20 min, and stained with 0.5% (w/v) methylene blue (prepared in 70% methanol). Following washing with water and drying, colonies (≥50 cells) were manually counted. The colony-forming efficiency (CFE) of cells was calculated by dividing the number of colonies formed by the number of cells seeded for each condition. The surviving fraction was determined by dividing the CFE of the treated cells by CFE of the control cells. A survival curve was generated by plotting the log of drug concentrations versus surviving fraction.

Like-named read-outs stand apart in the source and are kept apart here.

The IC50 is the midpoint of a concentration-inhibition curve. By melting point is commonly meant the temperature, or range, at which the solid turns liquid.

Take `COc1cccc(-c2cc3ccc(F)cc3c(=O)[nH]2)c1` [compound 6]: the IC50 in [1] (24 h +drug/72 h –drug treatment, read-out: mean IC50 ± SEM, MCF-7) was 1600 ± 400 nM; in series [1] (96 h treatment, mean ± SEM, read-out: IC50 MCF-7 (prescreen)) it was 680 ± 130 nM; in [2] (24 h +drug/72 h –drug treatment, read-out: mean IC50 ± SEM, MDA-MB-231), 220 ± 20 nM; in [2] (96 h treatment, mean ± SEM, read-out: IC50 MDA-MB-231), 210 ± 50 nM; in series [3] (24 h +drug/72 h –drug treatment, read-out: mean IC50 ± SEM, HepG2) it was 1400 ± 60 nM; in [3] (96 h treatment, mean ± SEM, read-out: IC50 HepG2) it was 3030 ± 610 nM. Also, the IC50 in series [4] (24 h +drug/72 h –drug treatment, read-out: mean IC50 ± SEM, SNU423) is 680 ± 90 nM; in series [4] (96 h treatment, mean ± SEM, read-out: IC50 SNU423) it was 600 ± 60 nM; in series [5] (24 h +drug/72 h –drug treatment, read-out: mean IC50 ± SEM, A549), 470 ± 30 nM; in [5] (96 h treatment, mean ± SEM, read-out: IC50 A549) it was 380 ± 20 nM; in [6] (24 h +drug/72 h –drug treatment, read-out: mean IC50 ± SEM, HCT116), 210 ± 10 nM; in [6] (96 h treatment, mean ± SEM, read-out: IC50 HCT116), 190 ± 10 nM. For the same compound, the IC50 in series [7] was more than 25000 nM. Further, the colony formation entry in series [8] was “No colonies were apparent”.

In turn, `O=c1[nH]c(-c2ccc(F)cc2)cc2ccc(F)cc12` [compound 8] came in with a melting point of 294 to 296 °C. The IC50 in series [1] (Homo sapiens, MCF7, 96 h treatment, mean ± SEM, read-out: IC50 MCF-7 (prescreen)) was more than 50000 nM.
